Assays:
Mouse plasma stability = type: in vitro ADME; settings: read-out: Stability Mouse plasma t1/2
From the text: Other parameters that may be measured using standard assays that are indicative of a compound's exposure profile include, for example plasma stability (half-life measurement), blood AUC, Cmax, Cmin and Tmax values.

USP30 = target: T1, USP30 (Mus musculus, UniProt Q3UN04); experiment: USP30 kidney tissue target engagement assay (TE ex vivo); type: in vivo; settings: Mouse kidney 10 mg/kg PO
T1 construct: brain or kidney tissue samples from compound-dosed animals; from tissue; host or cells: kidney
T1 sequence (Q3UN04 1-517): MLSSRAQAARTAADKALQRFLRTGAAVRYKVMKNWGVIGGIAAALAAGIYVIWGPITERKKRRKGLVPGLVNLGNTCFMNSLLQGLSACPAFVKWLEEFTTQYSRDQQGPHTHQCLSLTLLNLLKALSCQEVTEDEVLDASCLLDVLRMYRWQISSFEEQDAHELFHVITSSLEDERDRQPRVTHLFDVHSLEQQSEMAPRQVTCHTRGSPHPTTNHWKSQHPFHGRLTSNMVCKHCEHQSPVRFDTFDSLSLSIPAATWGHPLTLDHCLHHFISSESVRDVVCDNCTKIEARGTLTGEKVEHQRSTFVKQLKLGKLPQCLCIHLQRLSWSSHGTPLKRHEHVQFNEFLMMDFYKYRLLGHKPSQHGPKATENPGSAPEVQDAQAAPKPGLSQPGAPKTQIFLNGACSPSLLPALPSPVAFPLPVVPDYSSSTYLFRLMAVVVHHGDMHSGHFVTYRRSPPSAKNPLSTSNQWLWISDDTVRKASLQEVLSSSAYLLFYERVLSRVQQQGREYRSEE
Description: 50 to 100 mg of tissue was homogenised in 3× volume of lysis buffer (50 mM Tris, pH 7.5, 50 mM NaCl, 0.1% NP-40/Igepal CA-630, 0.5% CHAPS, 2 mM MgCl2, 5 mM beta-mercaptoethanol, cOmplete mini tablets EDTA free (Roche), PhosStop tablets (Roche)) using a Retch Mixer Mill (MM400). Lysate containing 60 μg protein was incubated with a final conc of 6 μM of HA-Ahx-Ahx-Ub-VME probe for 15 mins at room temperature. The reaction was stopped by addition of 5×SDS sample loading buffer and proteins separated by SDS-PAGE and western blotting. USP30 was detected using an anti-USP30 Sheep S746D antibody (MRC PPU Reagents and Services) and a rabbit anti sheep secondary IgG (H+L) horseradish peroxidase conjugated (Thermo #31480) and visualised using ECL reagent (GE #RPN2109) on a GE LAS4000 imager. Target engagement was measured by quantitation of the bands corresponding to USP30 and USP30 bound to the Ub-VME probe and expression of this proportion compared to vehicle treated control.
TE ex vivo: USP30 kidney tissue target engagement assay.

[1] = Brain homogenate free fraction, equilibrium dialysis; type: in vitro ADME; settings: mouse brain tissue homogenate; read-out: Binding Mouse Brain fu, br
From the text: Brain fu,br: The free fraction of a compound in brain tissue homogenate preparation determined by in vitro equilibrium dialysis. It is understood that only unbound (free) compound is capable of engaging with the target.

UUO injured kidneys = experiment: Unilateral ureteral obstructive kidney disease model (UUO); type: in vivo, C57BL/6 mice; settings: 10 days
From the text: (f) The unilateral ureteral obstructive kidney disease model (UUO). [Chevalier et al, 2009, Kidney Int 75(11): 1145-1152] UUO causes renal injury characterised by tubular cell injury, interstitial inflammation and fibrosis. It serves as a model of irreversible post-renal acute kidney injury (AKI). Experimental UUO has illustrated the molecular mechanisms of apoptosis, inflammation and fibrosis, all of which are key processes in renal injury, regardless of the primary insult. Consequently, the UUO model provides investigators information beyond obstruction. Example 1 was assessed in the UUO model to determine the ability of the compound to attenuate progressive tubulointerstitial fibrosis and chronic kidney disease (CKD). On day 1 of the study, adult C57BL/6 mice were dosed by oral gavage according to one of the following dosing regimens; Vehicle or 5 mg/kg Example 1 BID. Two hours post dosing on day 1 study mice underwent surgery to ligate the left ureter at two points. Successful UUO surgery was later confirmed by observation of dilation of renal pelvis due to hydronephrosis. The animals were dosed according to their prescribed regimen for 10 days at which point kidneys were harvested, or histopathology assessment and for protein/RNA assessment. […]

[2] = system: Eurofins CEREP SafetyScreen44 panel; experiment: Eurofins CEREP SafetyScreen44 panel; type: binding; settings: single concentration of 10 μM, all targets in the panel
From the text: Aside from selectivity over other DUB enzymes, it is important for a drug to have low affinity for other targets, and pharmacological profiling may be performed against panels of targets to assess the potential for, and to minimise, potential off-target effects. Examples of targets for which the compounds of the present invention may be screened against are those of the industry standard Eurofins-Cerep SafetyScreen44 panel, which includes 44 targets as a representative selection of GPCR receptors, transporters, ion channels, nuclear receptors, and kinase and non-kinase enzymes. Preferably, compounds of the invention have insignificant affinity against targets of this screening panel. Further examples of targets for which the compounds of the present invention may be screened against are kinases of the Thermo Fisher SelectScreen kinase profiling panel, which includes 39 targets as a representative selection of kinase enzymes. Preferably, compounds of the invention have insignificant affinity against targets of this screening panel. Additionally, examples of a particular enzyme class for which the compounds of the present invention may be screened against are the cathepsins (e.g. cathepsin A, B, C, H, K, L, S, V and Z). Preferably, compounds of the invention have good selectivity for USP30 over one or more of these enzymes. […]

Hepatocyte Cl human = type: in vitro ADME; settings: human hepatocytes
Description: Hep Cl human: in vitro hepatocyte clearance in human cells.
Clu: in vitro clearance. Clu as defined here is the scaled clearance, in turn calculated from the intrinsic clearance. The intrinsic clearance is the predicted clearance due to hepatic metabolic reactions, determined from incubation of a compound in a hepatocyte preparation.

PK mouse = type: in vivo
From the text: Cl in vivo clearance: Pharmacokinetic measurement of the volume of plasma (or any matrix) from which a substance is completely removed per unit time.
Oral F: Oral Bioavailability.
Kpu,u is the ratio of unbound drug in brain to unbound drug in plasma and may be indicative of potential for treating peripheral and/or CNS indications.

Question: Which half-life (Mouse plasma stability) does the source give for C[C@@H]1C[C@@H](NC(=O)c2nnc(-c3cccc(C#N)c3)o2)CN1C#N [Example 1, N-((3R,5R)-1-Cyano-5-methylpyrrolidin-3-yl)-5-(3-cyanophenyl)-1,3,4-oxadiazole-2-carboxamide] here?
Answer: The half-life was > 2000 min.

Question: What about the “TE ex vivo TE % occupancy” value (USP30; 1 h post-dose) of the same molecule?
Answer: The value was 94%.

Question: And the “TE ex vivo TE % occupancy” value (USP30; 4 h post-dose)?
Answer: Its value is 89%.

Question: And the “TE ex vivo TE % occupancy” value (USP30; 8 h post-dose)?
Answer: Its value is 79%.

Question: And the “TE ex vivo TE % occupancy” value (USP30; 12 h post-dose)?
Answer: The value was 8%.

Question: And the fraction unbound [1]?
Answer: The fraction unbound was 0.26.

Question: And the “α-SMA levels in UUO injured kidneys” value (UUO injured kidneys; 5 mg/kg oral BID, compared to vehicle treated controls)?
Answer: Its value is “statistically reduced α-SMA levels”.

Question: What about the “collagen deposition, picrosirius red staining in ligated kidneys” value (UUO injured kidneys; 5 mg/kg p.o. BID) of the same molecule?
Answer: The value was “statistically reduced collagen deposition”.

Question: What about the “inhibition of binding or enzyme activity” value [2] of the same molecule?
Answer: The value was “less than 25%”.

Question: And the melting point?
Answer: The melting point was 152 to 154 °C.

Question: And the “Hepatocyte Cl human scaled Clu” value (Hepatocyte Cl human)?
Answer: Its value is 6 mL/min/kg.

Question: What about the “Unbound plasma Cmax/TOM20-Ub cell potency” value (PK mouse; 10 mg/kg PO dose - mouse) of the same molecule?
Answer: Its value is 82-fold.

Question: What about the clearance (PK mouse; blood, mouse 2 mg/kg iv, read-out: Cl blood) of the same molecule?
Answer: The clearance was 23 mL/min/kg.

Question: And the Kp (PK mouse; brain and plasma (unbound), 2 mg/kg IV dose - mouse, unbound brain to unbound plasma, read-out: Kpu, u)?
Answer: Its Kp is 0.01.

Question: What about the bioavailability (PK mouse; in vivo, po, mouse 10 mg/kg, read-out: Oral F (%)) of the same molecule?
Answer: The bioavailability was 48%.

Reference: patent US20220315572A1, “SUBSTITUTED CYANOPYRROLIDINES WITH ACTIVITY AS USP30 INHIBITORS” (MISSION THERAPEUTICS LIMITED, priority 2019, published 2022)
